Test results taken from patent US20150352108A1, “AMINO-PYRIMIDINE COMPOUNDS AS INHIBITORS OF TBK1 AND/OR IKK EPSILON” (Alzheimer's Institute of America, priority 2009, published 2015).

Biological target: T1, IKKε (Homo sapiens, UniProt Q14164)
T1 construct: His-tag; made in house; host or cells: Sf9 insect cells
T1 sequence (Q14164 1-716): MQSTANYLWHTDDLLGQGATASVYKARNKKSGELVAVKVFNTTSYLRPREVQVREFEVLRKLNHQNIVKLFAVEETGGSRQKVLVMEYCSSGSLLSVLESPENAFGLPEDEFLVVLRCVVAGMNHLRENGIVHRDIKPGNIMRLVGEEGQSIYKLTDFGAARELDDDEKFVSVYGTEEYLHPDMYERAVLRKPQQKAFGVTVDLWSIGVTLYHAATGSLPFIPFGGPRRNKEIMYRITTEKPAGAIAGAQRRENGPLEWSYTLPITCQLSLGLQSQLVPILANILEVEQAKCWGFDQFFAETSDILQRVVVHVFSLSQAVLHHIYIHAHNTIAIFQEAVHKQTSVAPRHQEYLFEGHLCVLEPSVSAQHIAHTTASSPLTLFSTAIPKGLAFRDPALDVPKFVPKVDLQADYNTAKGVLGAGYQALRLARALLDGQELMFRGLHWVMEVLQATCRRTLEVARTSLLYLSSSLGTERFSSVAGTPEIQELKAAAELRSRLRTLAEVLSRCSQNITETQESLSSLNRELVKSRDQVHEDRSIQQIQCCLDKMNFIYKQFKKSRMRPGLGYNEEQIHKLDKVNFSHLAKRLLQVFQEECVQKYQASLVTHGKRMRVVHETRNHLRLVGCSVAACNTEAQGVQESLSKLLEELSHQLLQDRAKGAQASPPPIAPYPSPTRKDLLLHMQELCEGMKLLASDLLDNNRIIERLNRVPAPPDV
Assay: In-vitro IKKε kinase assay ([γ33]ATP filter-plate)
Type: biochemical
Settings: text bins; read-out: IC50 for inhibition of the kinase activity of IKKε
Outline: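 His-tagged Sf9-expressed kinases at 0.1 or 0.02 μg/ml (TBK1) and 0.1 or 0.015 μg/ml (IKKε) for normal and sensitized formats, with myelin basic protein or casein substrate. ATP was at 2×Km (60 μM TBK1, 32 μM IKKε) plus 0.3 μCi [γ33]ATP. Reactions ran 30-45 min, were captured on P-81 filters, and counts were normalized to DMSO.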

| Compound | IC50 |
| --- | --- |
| N#Cc1cc(-c2ccnc(Nc3ccc(N4CCOCC4)cc3)n2)ccc1OCCNC(=O)CCO [Example 95] | 50 to 500 nM |
| N#Cc1cccc(-c2ccnc(Nc3ccc4c(c3)CCC4)n2)c1 [Example 198, 3-[2-(2,3-Dihydro-1H-inden-5-ylamino)pyrimidin-4-yl]benzonitrile] | 50 to 500 nM |
| Cc1ccnc(NS(=O)(=O)c2ccc(Nc3nccc(-c4ccc(OC5CCOCC5)c(C#N)c4)n3)cc2)n1 [compound 635, 4-({4-[3-Cyano-4-(tetrahydro-2H-pyran-4-yloxy)phenyl]pyrimidin-2-yl}amino)-N-(4-methylpyrimidin-2-yl)benzene-sulfonamide] | < 5 nM |
| N#Cc1cc(-c2ccnc(Nc3cccc(-c4cccnc4)c3)n2)ccc1OC1CCOCC1 [compound 549, 5-(2-{[3-(Pyridin-3-yl)phenyl]amino}pyrimidin-4-yl)-2-(tetrahydro-2H-pyran-4-yloxy)benzonitrile] | < 5 nM |
| COc1ccc(-c2ccnc(Nc3ccc(N4CCCC4C(=O)N(C)C)c(OC)c3)n2)cc1C#N (stereo not drawn) [Example 87] | 5 to 50 nM |
| CC(C)C(=O)Nc1ccc(-c2ccnc(Nc3ccc(C(C)CN4CCOCC4)cc3)n2)cc1C#N (stereo not drawn) [compound 452, N-{2-cyano-4-[2-({4-[1-(morpholin-4-yl)propan-2-yl]phenyl}amino)pyrimidin-4-yl]phenyl}-2-methylpropanamide] | 50 to 500 nM |
| CN(C)C(=O)N1CCC(Oc2ccc(-c3ccnc(Nc4ccc(N5CCOCC5)cc4)n3)cc2C#N)CC1 [Example 166, 4-[2-Cyano-4-(2-{[4-(morpholin-4-yl)phenyl]amino}pyrimidin-4-yl)phenoxy]-N,N-dimethylpiperidine-1-carboxamide] | 50 to 500 nM |
| N#Cc1cc(-c2ccnc(Nc3ccc(CN4CC(O)C4)cc3)n2)ccc1O[C@@H]1CCN(C(=O)CO)C1 [compound 615, 2-{[(3R)-1-(Hydroxyacetyl)pyrrolidin-3-yl]oxy}-5-[2-({4-[(3-hydroxyazetidin-1-yl)methyl]phenyl}amino)pyrimidin-4-yl]benzonitrile] | < 5 nM |
| COc1ccc(Nc2nccc(-c3ccc(OCc4ccccc4)c(C#N)c3)n2)cc1OC [Example 106, 2-(Benzyloxy)-5-{2-[(3,4-dimethoxyphenyl)amino]pyrimidin-4-yl}benzonitrile] | 5 to 50 nM |
| CC(C)NCCc1ccc(Nc2nccc(-c3ccc(NC(=O)C(C)C)c(C#N)c3)n2)cc1 [compound 462, N-{2-cyano-4-[2-({4-[2-(propan-2-ylamino)ethyl]phenyl}amino)pyrimidin-4-yl]phenyl}-2-methylpropanamide] | 5 to 50 nM |
| N#Cc1cc(-c2ccnc(Nc3cccc(-c4ccncc4)c3)n2)ccc1OC1CCOCC1 [compound 573, 5-(2-{[3-(Pyridin-4-yl)phenyl]amino}pyrimidin-4-yl)-2-(tetrahydro-2H-pyran-4-yloxy)benzonitrile] | < 5 nM |
| N#Cc1cc(-c2ccnc(Nc3ccc(-c4cccnc4)cc3)n2)ccc1OC1CCOCC1 [compound 550, 5-(2-{[4-(Pyridin-3-yl)phenyl]amino}pyrimidin-4-yl)-2-(tetrahydro-2H-pyran-4-yloxy)benzonitrile] | < 5 nM |
| COc1ccc(Nc2nccc(-c3cccc(C#N)c3)n2)cc1 [compound 319, 3-{2-[(4-Methoxyphenyl)amino]pyrimidin-4-yl}benzonitrile] | 50 to 500 nM |
| COc1ccc(Nc2nccc(-c3ccc(Cl)c(C#N)c3)n2)cc1OC [Example 182, 2-Chloro-5-{2-[(3,4-dimethoxyphenyl)amino]pyrimidin-4-yl}benzonitrile] | 5 to 50 nM |
| CN1CCN(c2ccc(Nc3nccc(-c4cc(C#N)cc(OCc5ccccc5)c4)n3)cc2)CC1 [Example 244, 3-(Benzyloxy)-5-(2-{[4-(4-methylpiperazin-1-yl)phenyl]amino}pyrimidin-4-yl)benzonitrile] | 50 to 500 nM |
| N#Cc1cc(-c2ccnc(Nc3cccc(NC(=O)NC4CCC(O)CC4)c3)n2)ccc1OC1CCOCC1 (stereo not drawn) [compound 589, 1-[3-({4-[3-Cyano-4-(tetrahydro-2H-pyran-4-yloxy)phenyl]pyrimidin-2-yl}amino)phenyl]-3-(4-hydroxycyclohexyl) urea] | < 5 nM |
| COc1cc(Nc2nccc(-c3ccc(OC)c(C#N)c3)n2)ccc1C [compound 325, 2-Methoxy-5-{2-[(3-methoxy-4-methylphenyl)amino]pyrimidin-4-yl}benzonitrile] | 50 to 500 nM |

| Compound | IC50 |
| --- | --- |
| N#Cc1cccc(-c2nc(Nc3ccc(N4CCOCC4)cc3)nc3[nH]cnc23)c1 [compound 562, 3-(2-{[4-(Morpholin-4-yl)phenyl]amino}-3H-purain-6-yl)benzonitrile] | 50 to 500 nM |
| N#Cc1cc(-c2ccnc(Nc3cccc(F)c3)n2)ccc1O[C@@H]1CCN(C(=O)CO)C1 [compound 641, 5-{2-[(3-Fluorophenyl)amino]pyrimidin-4-yl}-2-{[(3R)-1-(hydroxyacetyl)pyrrolidin-3-yl]oxy}benzonitrile] | 5 to 50 nM |
| N#Cc1cc(-c2ccnc(Nc3ccc(S(=O)(=O)Nc4nccs4)cc3)n2)ccc1OC1CCOCC1 [compound 575, 4-({4-[3-Cyano-4-(tetrahydro-2H-pyran-4-yloxy)phenyl]pyrimidin-2-yl}amino)-N-(1,3-thiazol-2-yl) benzenesulfonamide] | < 5 nM |
| N#Cc1cc(-c2ccnc(Nc3ccc(N4CCOCC4)cc3)n2)ccc1SC1CCCCC1 [Example 137, 2-(cyclohexylsulfanyl)-5-(2-{[4-(morpholin-4-yl)phenyl]amino}pyrimidin-4-yl)benzonitrile] | 50 to 500 nM |
| N#Cc1cc(-c2ccnc(Nc3ccc(N4CCOCC4)cc3)n2)ccc1OC1CN(C(=O)CO)C1 [Example 131, 2-{[1-(hydroxyacetyl)azetidin-3-yl]oxy}-5-(2-{[4-(morpholin-4-yl)phenyl]amino}pyrimidin-4-yl)benzonitrile] | 50 to 500 nM |
| CC(C)N1CCC(Oc2ccc(-c3ccnc(Nc4ccc(N5CCOCC5)cc4)n3)cc2C#N)CC1 [Example 227, 5-(2-{[4-(Morpholin-4-yl)phenyl]amino}pyrimidin-4-yl)-2-{[1-(propan-2-yl)piperidin-4-yl]oxy}benzonitrile] | 50 to 500 nM |
| COc1cc(NC(=O)c2ccccn2)cc(Nc2nccc(-c3ccc(OC)c(C#N)c3)n2)c1 [compound 365] | 50 to 500 nM |
| CC(=O)N1CCC(COc2ccc(-c3ccnc(Nc4ccc(N5CCOCC5)cc4)n3)cc2C#N)C1 (stereo not drawn) [compound 469, 2-[(1-acetylpyrrolidin-3-yl)methoxy]-5-(2-{[4-(morpholin-4-yl)phenyl]amino}pyrimidin-4-yl)benzonitrile] | 5 to 50 nM |
| COc1ccc(-c2ccnc(Nc3ccc(S(N)(=O)=O)cc3)n2)cc1C#N [compound 323, 4-{[4-(3-Cyano-4-methoxyphenyl)pyrimidin-2-yl]amino} benzenesulfonamide] | 5 to 50 nM |
| COc1ccc(-c2ccnc(Nc3cccc(S(=O)(=O)NCCCO)c3)n2)cc1C#N [compound 306, 3-{[4-(3-Cyano-4-methoxyphenyl)pyrimidin-2-yl]amino}-N-(3-hydroxypropyl) benzenesulfonamide] | 50 to 500 nM |
| COc1ccc(-c2ccnc(Nc3ccc(NC(=O)NC4CCCC4)cc3)n2)cc1C#N [Example 8, 1-(4-{[4-(3-Cyano-4-methoxyphenyl)pyrimidin-2-yl]amino}phenyl)-3-cyclopentylurea] | 50 to 500 nM |
| CC(C)C(=O)Nc1ccc(-c2ccnc(Nc3ccc(OCCN4CCOCC4)cc3)n2)cc1C#N [compound 431, N-{2-cyano-4-[2-({4-[2-(morpholin-4-yl)ethoxy]phenyl}amino)pyrimidin-4-yl]phenyl}-2-methylpropanamide] | 5 to 50 nM |
| COc1cc(Nc2nccc(-c3ccc(OC4CCN(C(=O)CO)C4)c(C#N)c3)n2)ccc1OCCOCCN (stereo not drawn) [Example 199, 5-[2-({4-[2-(2-aminoethoxy)ethoxy]-3-methoxyphenyl}amino)pyrimidin-4-yl]-2-{[1-(hydroxyacetyl)pyrrolidin-3-yl]oxy}benzonitrile] | 5 to 50 nM |
| COc1cc(NC(=O)C2CCCC2)cc(Nc2nccc(-c3ccc(OC)c(C#N)c3)n2)c1 [compound 362, N-(3-{[4-(3-Cyano-4-methoxyphenyl)pyrimidin-2-yl]amino}-5-methoxyphenyl) cyclopentane-carboxamide] | 5 to 50 nM |
| N#Cc1cc(-c2ccnc(Nc3ccc(C#Cc4cccnc4)cc3)n2)ccc1OC1CCOCC1 [compound 605, 5-(2-{[4-(Pyridin-3-ylethynyl)phenyl]amino}pyrimidin-4-yl)-2-(tetrahydro-2H-pyran-4-yloxy)benzonitrile] | 5 to 50 nM |
| N#Cc1cc(-c2ccnc(Nc3ccc(N4CCOCC4)cc3)n2)ccc1OCCNC(=O)CO [Example 197, N-{2-[2-cyano-4-(2-{[4-(morpholin-4-yl)phenyl]amino}pyrimidin-4-yl)phenoxy]ethyl}-2-hydroxyacetamide] | 5 to 50 nM |
